Where a name gives a salt, the structure may show the parent alone. Starred links: 1 amine or outer side, 2 acyl side, 3 side chain; linkers in the order of their positions; H or OH if unused. Non-standard residues stand in square brackets, D forms with d. Residues, ends and D or L forms follow the SMILES beside them. Groups on a side chain read outwards from the residue. *: point of attachment. DOTA = O=C(O)CN1CCN(CC(=O)O)CCN(CC(=O)*)CCN(CC(=O)O)CC1; Phe(4-CH2NH2) = NCc1ccc(C[C@H](N)C(=O)O)cc1; Piperazinyl(4-CH2COOH) = O=C(O)CN1CCN(*)CC1; AEF = NCCOc1ccc(C[C@H](N)C(=O)O)cc1; NMeF = CN[C@@H](Cc1ccccc1)C(=O)O; Aoc(2) = CCCCCC[C@H](N)C(=O)O; Ahp(2) = CCCCC[C@H](N)C(=O)O; hSer = N[C@@H](CCO)C(=O)O; AEEA = NCCOCCOCC(=O)O; CO = O=C([*:1])[*:2]; Propyl = CCC*
How the values were obtained:
mouse FAP [1] = target: T1, mouse FAP (Mus musculus, UniProt P97321); assay: Enzymatic FAP competition assay (Z-Gly-Pro-AMC fluorescence), mouse FAP; format: biochemical; settings: read-out: m. FAP, Enz., IC50
T1 construct: biotinylated His, Avi tag, mouse FAP (26-761, FAP-M82Q5); His; Avi tag (biotinylated); purchased AcroBiosystems FAP-M82Q5
T1 sequence (P97321 26-761): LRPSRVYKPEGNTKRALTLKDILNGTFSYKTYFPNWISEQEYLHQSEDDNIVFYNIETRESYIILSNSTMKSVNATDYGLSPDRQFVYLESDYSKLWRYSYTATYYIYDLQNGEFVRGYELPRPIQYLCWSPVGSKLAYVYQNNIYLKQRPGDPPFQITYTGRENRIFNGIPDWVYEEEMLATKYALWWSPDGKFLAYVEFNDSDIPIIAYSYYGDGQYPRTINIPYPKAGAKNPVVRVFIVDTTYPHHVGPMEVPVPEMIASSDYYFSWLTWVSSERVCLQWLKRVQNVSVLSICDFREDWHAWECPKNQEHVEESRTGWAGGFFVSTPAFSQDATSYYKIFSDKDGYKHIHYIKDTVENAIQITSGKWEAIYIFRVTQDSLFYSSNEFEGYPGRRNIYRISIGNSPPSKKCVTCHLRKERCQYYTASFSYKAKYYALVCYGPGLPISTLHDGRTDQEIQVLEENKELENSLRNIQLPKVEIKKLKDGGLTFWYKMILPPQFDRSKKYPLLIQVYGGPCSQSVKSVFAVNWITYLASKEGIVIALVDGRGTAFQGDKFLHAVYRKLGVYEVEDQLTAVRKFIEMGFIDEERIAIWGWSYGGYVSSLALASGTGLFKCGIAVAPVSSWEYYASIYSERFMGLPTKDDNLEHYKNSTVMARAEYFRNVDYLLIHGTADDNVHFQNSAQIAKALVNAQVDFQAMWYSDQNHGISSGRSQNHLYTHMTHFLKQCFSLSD
Summary of the method: (§1)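 Biotinylated His/Avi-tagged FAP ectodomain (human 26-760, mouse 26-761) at 0.01 nM, preincubated 24 h with peptides (14 concentrations, up to 1 μM) in pH 7.5 phosphate, 150 mM NaCl, 0.05% Tween20, 1% DMSO. Then 50 μM Z-Gly-Pro-AMC, 4 h at 22-24° C; AMC fluorescence (380/460 nm) gave IC50 from duplicate points.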

human FAP [2] = target: T2, human FAP (Homo sapiens, UniProt Q12884); assay: Surface plasmon resonance (SPR) for peptide affinity, human FAP; format: binding; settings: read-out: h. FAP, SPR, KD
T2 construct: the biotinylated His, Avi tag, human FAP (26-760, FAP-H82Q6); His; Avi tag (biotinylated); purchased AcroBiosystems FAP-H82Q6
T2 sequence (Q12884 26-760): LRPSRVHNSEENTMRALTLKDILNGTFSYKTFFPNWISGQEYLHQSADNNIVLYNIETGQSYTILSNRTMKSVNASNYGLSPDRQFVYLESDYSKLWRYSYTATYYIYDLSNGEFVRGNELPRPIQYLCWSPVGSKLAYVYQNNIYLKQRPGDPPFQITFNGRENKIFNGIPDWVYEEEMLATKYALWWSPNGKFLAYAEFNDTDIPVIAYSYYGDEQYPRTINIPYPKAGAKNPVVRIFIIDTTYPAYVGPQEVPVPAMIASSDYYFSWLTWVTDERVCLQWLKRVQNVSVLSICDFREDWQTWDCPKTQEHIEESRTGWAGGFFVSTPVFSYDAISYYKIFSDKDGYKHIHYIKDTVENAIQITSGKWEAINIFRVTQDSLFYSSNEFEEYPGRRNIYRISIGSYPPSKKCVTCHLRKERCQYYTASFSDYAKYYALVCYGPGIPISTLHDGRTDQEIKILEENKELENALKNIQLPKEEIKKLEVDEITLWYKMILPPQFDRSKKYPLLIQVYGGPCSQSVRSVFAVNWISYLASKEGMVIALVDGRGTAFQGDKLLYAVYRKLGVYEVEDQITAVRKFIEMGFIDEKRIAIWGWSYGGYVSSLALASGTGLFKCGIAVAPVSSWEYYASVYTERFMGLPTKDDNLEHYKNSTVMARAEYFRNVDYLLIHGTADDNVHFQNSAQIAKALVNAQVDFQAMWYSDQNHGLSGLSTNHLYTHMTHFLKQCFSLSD
Experimental: Peptide affinities (KD) were determined by SPR using a Biacore™ 8K device (Cytiva) towards the following proteins: biotinylated His, Avi tag, human FAP (26-760, FAP-H82Q6), biotinylated His, Avi tag, mouse FAP (26-761, FAP-M82Q5), His tag, human DPP4 (34-766, DP4-H82E3), all purchased from AcroBiosystems and His tag, mouse DPP4 (29-760, 954-SE) from R&D Systems. The FAP proteins and their homologous were diluted to a concentration of 2 μg/mL into acetate buffer pH 5.5, then immobilized onto a CM5 sensorchip (Cytiva, BR-1005-30) to reach a response around 2000 R U. The running buffer HBS-EP+pH 7.6 (20× from Teknova CAT. No: H8022) contained 10 mM HEPES pH 7.6, 150 mM NaCl, 3 mM EDTA, 0.05% Tween20 and 2% DMSO. Experiments were carried out at 25° C. using a flow rate of 30 μL/min. Compounds were tested in single cycle kinetic mode at 8 different concentrations. Curve fitting was performed using the Biacore™ 8K evaluation software. The sensorgrams were fitted by applying a 1:1 binding model to calculate kinetic rate constants and equilibrium dissociation constants (KD).
For this assay, the setup had the same conditions (flow rate, running buffer, peptide dilution) as described above for the CM5 method. The oligo CAP reagent obtained in the CAPture Kit (Ref. 28920234) was 1/5 diluted into running buffer and used with a contact time of 300 s at a flow rate of 2 μL/min. The human and mouse FAP constructs described above were used (from AcroBiosystems or produced in house). The FAP proteins were diluted to a concentration of 2 μg/mL into acetate pH 5.5, 0.05% Tween20 and used with a contact time of 600 s at a flow rate of 10 μL/min. The peptides were tested with an association time of 280 s followed by a dissociation time of 3000 s at a flow rate of 30 μL/min. The regeneration was done using the regeneration solution (8 M guanidine-HCl, 1 M NaOH) as obtained with a contact time of 270 s at a flow rate of 10 μL/min. […] The compounds marked with an asterisk were tested against human and mouse DDP4.

mouse FAP [3] = target: T1, mouse FAP; assay: Surface plasmon resonance (SPR) for peptide affinity, mouse FAP; format: binding
Summary of the method: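 Biotinylated His/Avi-tagged FAP ectodomains (human 26-760, mouse 26-761) captured or immobilized on Biacore sensor chips; peptides run at 25 °C in HBS-EP+ pH 7.6 with 2% DMSO, single-cycle kinetics, 8 concentrations. KD from 1:1 binding-model fit of sensorgrams.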

human FAP [4] = target: T2, human FAP; assay: Enzymatic FAP competition assay (Z-Gly-Pro-AMC fluorescence), human FAP; format: biochemical; settings: read-out: h. FAP, Enz., IC50
Summary of the method: as §1

SMILES	IC50 (mouse FAP [1]) [nM]	Kd (human FAP [2]) [nM]	Kd (mouse FAP [3]) [nM]	IC50 (human FAP [4]) [nM]
CCCCCC[C@@H]1NC(=O)[C@H](Cc2ccc(CNC(=O)COCCOCCN)cc2)NC(=O)[C@H](Cc2ccccc2)N(C)C(=O)CNC(=O)CNC(=O)[C@H]2CCCN2C(=O)[C@H](CC(=O)O)NC(=O)[C@H](CCCCNC(=O)N2CCN(CC(=O)O)CC2)NC(=O)CNC(=O)[C@H](Cc2c[nH]c3ccccc23)NC1=O [Example A1, 2-((9S,12S,15S,18S,24S,27S,32aR)-18-((1H-indol-3-yl)methyl)-12-(4-((2-(2-(2-aminoethoxy)ethoxy)acetamido)methyl)benzyl)-9-benzyl-24-(4-(4-(carboxymethyl)piperazine-1-carboxamido)butyl)-15-hexyl-8-methyl-1,4,7,10,13,16,19,22,25,28-decaoxodotriacontahydropyrrolo[1,2-a][1,4,7,10,13,16,19,22,25,28]decaazacyclotriacontin-27-yl)acetic acid TFA salt] (cyclo([Aoc(2)]WGK([CO-Piperazinyl(4-CH2COOH)])D[dP]GG[NMeF][Phe(4-CH2NH2)](AEEA)))	0.028	< 0.007	< 0.018	0.009
CCCOCC[C@@H]1NC(=O)[C@H](Cc2ccc(CNC(=O)COCCOCCN)cc2)NC(=O)[C@H](Cc2ccccc2)N(C)C(=O)CNC(=O)CNC(=O)[C@H]2CCCN2C(=O)[C@H](CC(=O)O)NC(=O)[C@H](CCCCNC(=O)N2CCN(CC(=O)O)CC2)NC(=O)CNC(=O)[C@H](Cc2c[nH]c3ccccc23)NC1=O [Example A2, 2-((9S,12S,15S,18S,24S,27S,32aR)-18-((1H-indol-3-yl)methyl)-12-(4-((2-(2-(2-aminoethoxy)ethoxy)acetamido)methyl)benzyl)-9-benzyl-24-(4-(4-(carboxymethyl)piperazine-1-carboxamido)butyl)-8-methyl-1,4,7,10,13,16,19,22,25,28-decaoxo-15-(2-propoxyethyl)dotriacontahydropyrrolo[1,2-a][1,4,7,10,13,16,19,22,25,28]decaazacyclotriacontin-27-yl)acetic acid TFA salt] (cyclo(D[dP]GG[NMeF][Phe(4-CH2NH2)](AEEA)[hSer](Propyl)WGK([CO-Piperazinyl(4-CH2COOH)])))	0.047	< 0.011	< 0.023	0.012
CCCCC[C@@H]1NC(=O)[C@H](Cc2ccc(O)cc2)NC(=O)[C@H](Cc2ccccc2)N(C)C(=O)CNC(=O)CNC(=O)[C@H]2CCCN2C(=O)[C@H](CC(=O)O)NC(=O)[C@H](Cc2ccc(OC)cc2)NC(=O)CNC(=O)[C@H](Cc2c[nH]c3ccccc23)NC1=O [Example A13, Gly-Gly-NMePhe-Tyr-Ahp-Trp-Gly-F(4OMe)-Asp-D-Pro] (cyclo([Ahp(2)]WGY(Me)D[dP]GG[NMeF]Y))	0.011	< 0.005	0.011	0.005
CCCCC[C@@H]1NC(=O)[C@H](Cc2ccc(OCCN)cc2)NC(=O)[C@H](Cc2ccccc2)N(C)C(=O)CNC(=O)[C@@H]2CCCN2C(=O)[C@H]2CCCN2C(=O)[C@H](CC(=O)O)NC(=O)[C@H](Cc2ccc(O)cc2)NC(=O)CNC(=O)[C@H](Cc2c[nH]c3ccccc23)NC1=O [Example A32, Pro-Gly-NMePhe-F(4OEtNH2)-Ahp-Trp-Gly-Tyr-Asp-D-Pro] (cyclo(G[NMeF][AEF][Ahp(2)]WGYD[dP]P))	1.2	0.27	0.55	0.239
CCCCC[C@@H]1NC(=O)[C@H](Cc2ccc(O)cc2)NC(=O)[C@H](Cc2ccccc2)N(C)C(=O)CNC(=O)[C@@H]2CCCN2C(=O)[C@H]2CCCN2C(=O)[C@H](CC(=O)O)NC(=O)[C@H](Cc2ccc(O)cc2)NC(=O)CNC(=O)[C@H](Cc2c[nH]c3ccccc23)NC1=O [Example A51, 2-((6S,9S,15S,18S,21S,24S,29aS,34aR)-15-((1H-indol-3-yl)methyl)-24-benzyl-9,21-bis(4-hydroxybenzyl)-25-methyl-5,8,11,14,17,20,23,26,29,34-decaoxo-18-pentyldotriacontahydro-1H,5H-dipyrrolo[1,2-a:1′,2′-b1][1,4,7,10,13,16,19,22,25,28]decaazacyclotriacontin-6-yl)acetic acid] (cyclo(G[NMeF]Y[Ahp(2)]WGYD[dP]P))	0.4	0.163	0.185	0.117
CCCCC[C@@H]1NC(=O)[C@H](Cc2ccc(O)cc2)NC(=O)[C@H](Cc2ccccc2)N(C)C(=O)CNC(=O)CNC(=O)[C@H]2CCCN2C(=O)[C@H](CC(=O)O)NC(=O)[C@H](Cc2ccc(O)cc2)NC(=O)CNC(=O)[C@H](Cc2c[nH]c3ccccc23)NC1=O [Example A52, Gly-Gly-NMePhe-Tyr-Ahp-Trp-Gly-Tyr-Asp-D-Pro] (cyclo([Ahp(2)]WGYD[dP]GG[NMeF]Y))	0.737	0.118	0.36	0.104
CCCCCC[C@@H]1NC(=O)[C@H](Cc2ccc(CNC(=O)COCCOCCNC(=O)CN3CCN(CC(=O)O)CCN(CC(=O)O)CCN(CC(=O)O)CC3)cc2)NC(=O)[C@H](Cc2ccccc2)N(C)C(=O)CNC(=O)CNC(=O)[C@H]2CCCN2C(=O)[C@H](CC(=O)O)NC(=O)[C@H](CCCCNC(=O)N2CCN(CC(=O)O)CC2)NC(=O)CNC(=O)[C@H](Cc2c[nH]c3ccccc23)NC1=O [Example B1, Gly-Gly-NMePhe-F(4amPEG2NHDOTA)-Aoc-Trp-Gly-K(COpipzaa)-Asp-D-Pro] (cyclo(GG[NMeF][Phe(4-CH2NH2)]([AEEA-DOTA])[Aoc(2)]WGK([CO-Piperazinyl(4-CH2COOH)])D[dP]))	0.013	< 0.011	< 0.018	0.005
